As usually defined, the melting point is the temperature of the solid-liquid transition. Usually pIC50 stands for −log10 of the IC50, conventionally taken in molar units. What is called inhibition is how much of the control response was suppressed.

pIC50: −log10 of the molar value.

Data set [1] deals with T1, COX-2 (Homo sapiens, UniProt P35354).
T1 construct: incubated in the presence of LPS (10:g/ml) for 24 h at 37° C. in order to induce the COX-2 expression; from tissue; host or cells: human whole blood (heparinized) from healthy volunteers, LPS-stimulated for 24 h
T1 sequence (P35354 18-604): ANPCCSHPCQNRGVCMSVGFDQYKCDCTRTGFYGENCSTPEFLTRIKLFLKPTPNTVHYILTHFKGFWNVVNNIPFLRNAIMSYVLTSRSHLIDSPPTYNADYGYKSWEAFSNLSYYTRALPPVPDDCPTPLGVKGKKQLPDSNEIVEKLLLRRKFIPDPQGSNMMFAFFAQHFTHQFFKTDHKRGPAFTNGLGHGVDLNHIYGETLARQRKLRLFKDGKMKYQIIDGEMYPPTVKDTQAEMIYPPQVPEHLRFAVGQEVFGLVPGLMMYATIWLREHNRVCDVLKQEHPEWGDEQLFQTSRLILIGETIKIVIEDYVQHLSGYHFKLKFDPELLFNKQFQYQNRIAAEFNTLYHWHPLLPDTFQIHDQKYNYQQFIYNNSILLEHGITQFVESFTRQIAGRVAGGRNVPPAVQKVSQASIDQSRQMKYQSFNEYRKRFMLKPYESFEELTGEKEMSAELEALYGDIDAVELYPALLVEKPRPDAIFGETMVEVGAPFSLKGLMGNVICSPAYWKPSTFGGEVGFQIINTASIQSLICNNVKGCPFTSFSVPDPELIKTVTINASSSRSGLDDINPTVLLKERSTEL
In words: COX-2 activity in human whole blood (PGE2, LPS-induced). Type of data set: cell-based. The conditions noted are these: for pIC50: LPS 24 h at 37° C., PGE2 by ELISA; for Ratio COX-1/COX-2: ratio of COX-1/COX-2 IC50 values. (In an ELISA, binding on a coated surface is turned into a signal by an enzyme label.)
Method: (§1) COX-1 and COX-2 Activities in Human Whole Blood
Plasma was separated by centrifugation (10 min at 13000 rpm) and kept at −30° C. until PGE2 levels were measured using an enzyme immunoassay kit (ELISA). […] IC50 values were obtained by non-linear regression using InPlot, GraphPad software on an IBM computer.

The target of data set [2] is T2, COX-1 (Homo sapiens, UniProt P23219).
T2 construct: Fresh blood from healthy volunteers; from tissue; host or cells: human whole blood (heparinized) from healthy volunteers
Put plainly: COX-1 activity in human whole blood (TXB2, calcium ionophore A23187). Type of data set: cell-based. The conditions noted are these: for pIC50: 1 h at 37° C., TXB2 by ELISA.
Method: as §1
For the COX-1 activity determination, 500:1 aliquots of blood were incubated with either 5:1 vehicle (dimethylsulphoxide) or 5:1 of a test compound for 1 h at 37° C. Calcium ionophore A23187 (25:M) was added 20 min before stopping the incubation. Plasma was separated by centrifugation (10 min at 13000 rpm) and kept at −30° C. until TXB2 levels were measured using an enzyme immunoassay kit (ELISA).
The effect of the compounds was evaluated by incubating each compound at five to six different concentrations with triplicate determinations. IC50 values were obtained by non-linear regression using InPlot, GraphPad software on an IBM computer.

T2 sequence (P23219 24-599): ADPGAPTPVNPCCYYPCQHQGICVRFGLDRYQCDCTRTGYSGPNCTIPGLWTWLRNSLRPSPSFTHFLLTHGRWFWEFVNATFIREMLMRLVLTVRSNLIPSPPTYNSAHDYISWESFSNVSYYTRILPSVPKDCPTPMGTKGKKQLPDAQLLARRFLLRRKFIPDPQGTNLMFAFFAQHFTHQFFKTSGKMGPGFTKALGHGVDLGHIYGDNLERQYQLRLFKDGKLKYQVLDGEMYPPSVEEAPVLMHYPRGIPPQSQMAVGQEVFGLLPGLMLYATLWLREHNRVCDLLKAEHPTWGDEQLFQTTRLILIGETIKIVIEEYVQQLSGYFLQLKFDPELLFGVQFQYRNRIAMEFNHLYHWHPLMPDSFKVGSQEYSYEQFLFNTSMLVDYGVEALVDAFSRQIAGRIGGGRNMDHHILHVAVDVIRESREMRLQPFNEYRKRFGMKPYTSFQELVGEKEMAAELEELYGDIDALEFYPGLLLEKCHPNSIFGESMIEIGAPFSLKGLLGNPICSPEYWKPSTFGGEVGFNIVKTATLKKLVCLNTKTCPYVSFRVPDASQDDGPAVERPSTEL

`Cc1ccc(Oc2c(-c3ccc(S(C)(=O)=O)cc3)oc(C)cc2=O)c(F)c1` [Example 12, 3-(2-Fluoro-4-methylphenoxy)-2-(4-methanesulfonylphenyl)-6-methyl pyran-4-one] had a melting point of 171 °C.
Consider `CCc1oc(-c2ccc(S(C)(=O)=O)cc2)c(Oc2ccc(F)cc2F)c(=O)c1C` [Example 13, 3-(2,4-Difluorophenoxy)-6-ethyl-2-(4-methanesulfonylphenyl)-5-methyl pyran-4-one], for which the melting point was found to be 200 °C.
As for `CS(=O)(=O)c1ccc(-c2oc(CO)cc(=O)c2Oc2ccc(F)cc2F)cc1` [Example 22, 3-(2,4-Difluorophenoxy)-6-hydroxymethyl-2-(4-methanesulfonylphenyl) pyran-4-one], the melting point was 205 °C. In addition, in data set [1], the pIC50 is 6.72 and the “Ratio COX-1/COX-2” value was 279. Also, the pIC50 in data set [2] is 4.28.
On the same counts, the results for `C=Cc1c(C)oc(-c2ccc(S(C)(=O)=O)cc2)c(Oc2ccc(F)cc2F)c1=O` [Example 20, 3-(2,4-Difluorophenoxy)-2-(4-methanesulfonylphenyl)-6-methyl-5-vinyl pyran-4-one] are 184 °C, 5.84, 22 and 4.51.
Turning to `Cc1cc(=O)c(Oc2ccc(Br)cc2Br)c(-c2ccc(S(C)(=O)=O)cc2)o1` [Example 8, 3-(2,4-Dibromophenoxy)-2-(4-methanesulfonylphenyl)-6-methyl-pyran-4-one], the negative logarithm of the IC50 (pIC50) is 5.95 in data set [1] and 4.24 in data set [2]. In addition, the “Ratio COX-1/COX-2” value in data set [1] was 51.
`Cc1oc(-c2ccc(S(C)(=O)=O)cc2)c(Oc2ccc(F)cc2F)c(=O)c1Cl` [Example 14, 3-Chloro-5-(2,4-difluorophenoxy)-6-(4-methanesulfonylphenyl)-2-methyl pyran-4-one]: the melting point worked out at 210 °C.
`Cc1oc(-c2ccc(S(C)(=O)=O)cc2)c(Oc2ccc(F)cc2F)c(=O)c1C` [Example 19, 3-(2,4-Difluorophenoxy)-5,6-dimethyl-2-(4-methanesulfonylphenyl)pyran-4-one]: the melting point came to 192 °C. Besides, in data set [1], the pIC50 was 7.09 and the “Ratio COX-1/COX-2” value amounted to 178. Besides, in data set [2], the pIC50 was 4.84.
The compound `Cc1c(C(F)F)oc(-c2ccc(S(C)(=O)=O)cc2)c(Oc2ccc(F)cc2F)c1=O` [Example 38, 2-(1,1-Difluoromethyl)-5-(2,4-difluorophenoxy)-6-(4-methanesulfonylphenyl)-3-methylpyran-4-one] displayed a melting point of 187.8 to 188.6 °C.
As to `Cc1cc(=O)c(Oc2ccc(Br)cc2F)c(-c2ccc(S(C)(=O)=O)cc2)o1` [Example 6, 3-(4-Bromo-2-fluorophenoxy)-2-(4-methanesulfonylphenyl)-6-methyl pyran-4-one], in data set [1], the “Ratio COX-1/COX-2” value is 268. In data set [2], the pIC50 was 4.40.
Consider `CC(=O)OCc1cc(=O)c(Oc2ccc(F)cc2F)c(-c2ccc(S(C)(=O)=O)cc2)o1` [Example 29, Acetic acid [5-(2,4-difluorophenoxy)-6-(4-methanesulfonylphenyl)-4-oxo-4H-pyran-2-yl]methyl ester], for which the melting point came to 175 °C.
Consider `Cc1oc(-c2ccc(S(C)(=O)=O)cc2)c(Oc2ccc(F)cc2F)c(=O)c1Br` [Example 17, 3-Bromo-5-(2,4-difluorophenoxy)-6-(4-methanesulfonylphenyl)-2-methyl pyran-4-one], for which the results for the pIC50 in data set [1] and in data set [2] were 6.11 and 4.70, respectively. Besides, in data set [1], the “Ratio COX-1/COX-2” value amounted to 27.
As to `Cc1cc(=O)c(Oc2ccc(Cl)cc2C)c(-c2ccc(S(C)(=O)=O)cc2)o1` [Example 2, 3-(4-Chloro-2-methylphenoxy)-2-(4-methanesulfonylphenyl)-6-methyl pyran-4-one], the pIC50 in data set [1] is 6.89; in data set [2], 4.41. Further, in data set [1], the “Ratio COX-1/COX-2” value is reported as 296.
Compound `CCc1c(C)oc(-c2ccc(S(C)(=O)=O)cc2)c(Oc2ccc(F)cc2F)c1=O` [Example 21, 3-(2,4-Difluorophenoxy)-5-ethyl-2-(4-methanesulfonylphenyl)-6-methyl pyran-4-one] showed a melting point of 173 °C. Moreover, in data set [1], the negative logarithm of the IC50 (pIC50) was 6.24 and the “Ratio COX-1/COX-2” value is on record as 62. The pIC50 in data set [2] is 4.45.
In the case of `Cc1oc(-c2ccc(S(C)(=O)=O)cc2)c(Oc2ccc(F)cc2)c(=O)c1Cl` [Example 15, 3-Chloro-5-(4-fluorophenoxy)-6-(4-methanesulfonylphenyl)-2-methyl pyran-4-one], the melting point is 279 °C.
In the case of `CS(=O)(=O)c1ccc(-c2oc(CO)cc(=O)c2Oc2ccc(Cl)cc2)cc1` [Example 24, 3-(4-Chlorophenoxy)-6-hydroxymethyl-2-(4-methanesulfonylphenyl)pyran-4-one], the melting point was determined as 227 °C. In data set [1], the pIC50 was 6.22 and the “Ratio COX-1/COX-2” value was over 150. In data set [2] (read-out: COX-1 inhibition at 100 μM, at 100 μM), the inhibition at 100 µM amounted to 13%.
On to `CS(=O)(=O)c1ccc(-c2oc(CO)cc(=O)c2Oc2ccc(Br)cc2F)cc1` [Example 25, 3-(2-Fluoro-4-bromophenoxy)-6-hydroxymethyl-2-(4-methanesulfonylphenyl)pyran-4-one], for which the melting point lay within 202 to 203 °C.
Turning to `CS(=O)(=O)c1ccc(-c2oc(C(F)F)cc(=O)c2Oc2ccc(F)cc2F)cc1` [Example 34, 6-(1,1-Difluoromethyl)-3-(2,4-difluorophenoxy)-2-(4-methanesulfonylphenyl)pyran-4-one], the melting point was 156 °C.
In turn, `Cc1cc(=O)c(Oc2ccccc2C)c(-c2ccc(S(C)(=O)=O)cc2)o1` [Example 10, 2-(4-Methanesulfonylphenyl)-6-methyl-3-(2-methylphenoxy)pyran-4-one] returned a melting point of 168 °C. In addition, in data set [1], the negative logarithm of the IC50 (pIC50) was 7.07 and the “Ratio COX-1/COX-2” value is 231. The pIC50 in data set [2] was 4.70.
For `Cc1cccc(Oc2c(-c3ccc(S(C)(=O)=O)cc3)oc(C)cc2=O)c1` [Example 11, 2-(4-Methanesulfonylphenyl)-6-methyl-3-(3-methylphenoxy)pyran-4-one], in that order: 162 °C, 6.52, 47 and 4.85.
In the case of `Cc1ccc(Oc2c(-c3ccc(S(C)(=O)=O)cc3)oc(C)cc2=O)c(Cl)c1` [Example 3, 3-(2-Chloro-4-methylphenoxy)-2-(4-methanesulfonylphenyl)-6-methyl pyran-4-one], in data set [1], the negative logarithm of the IC50 (pIC50) was 6.62 and the “Ratio COX-1/COX-2” value is given as 68. In addition, the pIC50 in data set [2] is 4.79.
Compound `Cc1ccc(Oc2c(-c3ccc(S(C)(=O)=O)cc3)oc(C(F)F)cc2=O)cc1` [Example 36, 6-(1,1-Difluoromethyl)-2-(4-methanesulfonylphenyl)-3-(4-methylphenoxy)pyran-4-one] showed a melting point of 160 °C. In data set [1], the pIC50 is 7.01 and the “Ratio COX-1/COX-2” value was 294. Besides, the pIC50 in data set [2] was 4.55.
On the same counts, the results for `Cc1oc(-c2ccc(S(C)(=O)=O)cc2)c(Oc2ccc(Cl)cc2)c(=O)c1Cl` [Example 16, 3-Chloro-5-(4-chlorophenoxy)-6-(4-methanesulfonylphenyl)-2-methyl pyran-4-one] are 274 °C, 6.28, 74 and 4.59.
`Cc1cc(=O)c(Oc2ccc(Br)cc2Cl)c(-c2ccc(S(C)(=O)=O)cc2)o1` [Example 7, 3-(4-Bromo-2-chlorophenoxy)-2-(4-methanesulfonylphenyl)-6-methyl pyran-4-one] showed a pIC50 in data set [1] of 6.68.
For `COCc1cc(=O)c(Oc2ccc(F)cc2)c(-c2ccc(S(C)(=O)=O)cc2)o1` [Example 27, 3-(4-Fluorophenoxy)-2-(4-methanesulfonylphenyl)-6-methoxymethylpyran-4-one], in data set [1], the pIC50 was 6.49 and the “Ratio COX-1/COX-2” value is recorded as 270. Besides, the pIC50 in data set [2] is 4.06.
In the case of `CS(=O)(=O)c1ccc(-c2oc(C(=O)O)cc(=O)c2Oc2ccc(Cl)cc2)cc1` [Example 33, 5-(4-Chlorophenoxy)-6-(4-methanesulfonylphenyl)-4-oxo-4H-pyran-2-carboxylic acid], the melting point was determined as 263 °C.
`Cc1cc(=O)c(Oc2ccc(F)cc2C)c(-c2ccc(S(C)(=O)=O)cc2)o1` [Example 1, 3-(4-Fluoro-2-methylphenoxy)-2-(4-methanesulfonylphenyl)-6-methyl pyran-4-one] had a melting point of 146 °C. In data set [1], the pIC50 is 6.74 and the “Ratio COX-1/COX-2” value is on record as 118.

The values above are taken from US7354936B2, “2-phenylpyran-4-one derivatives” (Almirall AG, priority 2000, dated 2008).
